In ChEMBL document CHEMBL2434902, “A new strategy to improve the metabolic stability of lactone: discovery of (20S,21S)-21-fluorocamptothecins as novel, hydrolytically stable topoisomerase I inhibitors” (J Med Chem, 2013):
Calls of active or inactive are those of the source. The rule behind the calls is not given here.

Assays:
MDA-MB-435 = test: Cytotoxicity against human MDA-MB-435 cells after 72 hrs by MTT assay; assay type: functional, cell-based; conditions: MDA-MB-435, 72 h
A549 [1] = test: Cytotoxicity against human A549 cells after 72 hrs by MTT assay; assay type: functional, cell-based; conditions: A549, 72 h
HCT-116 = test: Cytotoxicity against human HCT116 cells after 72 hrs by MTT assay; assay type: functional, cell-based; conditions: HCT-116, 72 h
[2] = target: T1, DNA topoisomerase 1 (Homo sapiens) (UniProt P11387); test: Inhibition of topoisomerase1 (unknown origin)-mediated supercoiled DNA relaxation at 100 uM after 15 mins by SDS-PAGE analysis
T1 sequence (whole entry): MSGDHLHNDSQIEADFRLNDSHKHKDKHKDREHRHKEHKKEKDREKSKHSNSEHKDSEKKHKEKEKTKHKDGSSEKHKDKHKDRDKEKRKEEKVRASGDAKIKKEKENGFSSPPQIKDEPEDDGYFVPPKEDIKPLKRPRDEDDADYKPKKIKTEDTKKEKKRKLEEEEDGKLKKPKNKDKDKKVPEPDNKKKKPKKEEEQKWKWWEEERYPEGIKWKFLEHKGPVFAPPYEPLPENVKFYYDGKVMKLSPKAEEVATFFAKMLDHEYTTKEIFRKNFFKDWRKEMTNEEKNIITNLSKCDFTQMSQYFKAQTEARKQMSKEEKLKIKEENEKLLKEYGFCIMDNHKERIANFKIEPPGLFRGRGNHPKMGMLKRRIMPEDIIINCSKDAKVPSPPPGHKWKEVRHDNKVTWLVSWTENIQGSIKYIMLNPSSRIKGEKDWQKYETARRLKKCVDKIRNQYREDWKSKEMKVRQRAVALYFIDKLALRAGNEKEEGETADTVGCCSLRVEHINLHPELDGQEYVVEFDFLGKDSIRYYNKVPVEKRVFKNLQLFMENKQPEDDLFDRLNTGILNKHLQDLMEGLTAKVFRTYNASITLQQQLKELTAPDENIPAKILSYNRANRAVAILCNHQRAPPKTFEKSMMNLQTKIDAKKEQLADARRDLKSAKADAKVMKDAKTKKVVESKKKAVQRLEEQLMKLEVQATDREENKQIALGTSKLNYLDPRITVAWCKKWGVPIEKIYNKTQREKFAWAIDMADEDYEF

A549 [3] = test: Antitumor activity against human A549 cells xenografted in BALB/C nude mouse assessed as tumor growth inhibition at 0.5 mg/kg, ip administered for 5 days measured after day 30 to 33 relative to vehicle-treated control; assay type: functional, organism-based; design: dose 0.5 mg/kg
Mus musculus = test: Toxicity in BALB/C nude mouse xenografted with human A549 cells assessed as weight loss at 2 mg/kg, ip after 5 days relative to vehicle-treated control; assay type: organism-based; design: dose 2 mg/kg, route intraperitoneal; conditions: in vivo, 120 h
[4] = Stability of the compound in PBS buffer at pH 7.4 assessed as compound remaining after 6 hrs by HPLC method; assay type: physicochemical; conditions: read-out: Stability
A549 [5] = test: Cell cycle arrest in human A549 cells assessed as decrease in G0/G1 phase at 10 uM after 36 hrs by propidium iodide staining-based flow cytometry; assay type: functional
A549 [6] = test: Induction of apoptosis in human A549 cells assessed as apoptotic cells at 0.5 uM after 48 hrs by AnnexinV-FITC/propidium iodide staining-based flow cytometry (reference value: 5.23%); assay type: functional
A549 [7] = test: Cell cycle arrest in human A549 cells assessed as accumulation at S phase at 10 uM after 36 hrs by propidium iodide staining-based flow cytometry; assay type: functional
[8] = target: T1, DNA topoisomerase 1 (Homo sapiens); test: Inhibition of topoisomerase1 (unknown origin)-mediated DNA cleavage at 100 uM after 15 mins by SDS-PAGE analysis
A549 [9] = test: Antitumor activity against human A549 cells xenografted in BALB/C nude mouse assessed as tumor growth inhibition at 2 mg/kg, ip administered for 5 days measured after day 30 to 33 relative to vehicle-treated control; assay type: functional; conditions: route intraperitoneal, read-out: TGI
[10] = target: DNA topoisomerase 2-alpha (Homo sapiens) (UniProt P11388); test: Inhibition of topoisomerase2 alpha (unknown origin)-mediated supercoiled DNA relaxation at 100 uM after 30 mins by SDS-PAGE analysis
Chain of DNA topoisomerase 2-alpha (Homo sapiens) (P11388 whole entry): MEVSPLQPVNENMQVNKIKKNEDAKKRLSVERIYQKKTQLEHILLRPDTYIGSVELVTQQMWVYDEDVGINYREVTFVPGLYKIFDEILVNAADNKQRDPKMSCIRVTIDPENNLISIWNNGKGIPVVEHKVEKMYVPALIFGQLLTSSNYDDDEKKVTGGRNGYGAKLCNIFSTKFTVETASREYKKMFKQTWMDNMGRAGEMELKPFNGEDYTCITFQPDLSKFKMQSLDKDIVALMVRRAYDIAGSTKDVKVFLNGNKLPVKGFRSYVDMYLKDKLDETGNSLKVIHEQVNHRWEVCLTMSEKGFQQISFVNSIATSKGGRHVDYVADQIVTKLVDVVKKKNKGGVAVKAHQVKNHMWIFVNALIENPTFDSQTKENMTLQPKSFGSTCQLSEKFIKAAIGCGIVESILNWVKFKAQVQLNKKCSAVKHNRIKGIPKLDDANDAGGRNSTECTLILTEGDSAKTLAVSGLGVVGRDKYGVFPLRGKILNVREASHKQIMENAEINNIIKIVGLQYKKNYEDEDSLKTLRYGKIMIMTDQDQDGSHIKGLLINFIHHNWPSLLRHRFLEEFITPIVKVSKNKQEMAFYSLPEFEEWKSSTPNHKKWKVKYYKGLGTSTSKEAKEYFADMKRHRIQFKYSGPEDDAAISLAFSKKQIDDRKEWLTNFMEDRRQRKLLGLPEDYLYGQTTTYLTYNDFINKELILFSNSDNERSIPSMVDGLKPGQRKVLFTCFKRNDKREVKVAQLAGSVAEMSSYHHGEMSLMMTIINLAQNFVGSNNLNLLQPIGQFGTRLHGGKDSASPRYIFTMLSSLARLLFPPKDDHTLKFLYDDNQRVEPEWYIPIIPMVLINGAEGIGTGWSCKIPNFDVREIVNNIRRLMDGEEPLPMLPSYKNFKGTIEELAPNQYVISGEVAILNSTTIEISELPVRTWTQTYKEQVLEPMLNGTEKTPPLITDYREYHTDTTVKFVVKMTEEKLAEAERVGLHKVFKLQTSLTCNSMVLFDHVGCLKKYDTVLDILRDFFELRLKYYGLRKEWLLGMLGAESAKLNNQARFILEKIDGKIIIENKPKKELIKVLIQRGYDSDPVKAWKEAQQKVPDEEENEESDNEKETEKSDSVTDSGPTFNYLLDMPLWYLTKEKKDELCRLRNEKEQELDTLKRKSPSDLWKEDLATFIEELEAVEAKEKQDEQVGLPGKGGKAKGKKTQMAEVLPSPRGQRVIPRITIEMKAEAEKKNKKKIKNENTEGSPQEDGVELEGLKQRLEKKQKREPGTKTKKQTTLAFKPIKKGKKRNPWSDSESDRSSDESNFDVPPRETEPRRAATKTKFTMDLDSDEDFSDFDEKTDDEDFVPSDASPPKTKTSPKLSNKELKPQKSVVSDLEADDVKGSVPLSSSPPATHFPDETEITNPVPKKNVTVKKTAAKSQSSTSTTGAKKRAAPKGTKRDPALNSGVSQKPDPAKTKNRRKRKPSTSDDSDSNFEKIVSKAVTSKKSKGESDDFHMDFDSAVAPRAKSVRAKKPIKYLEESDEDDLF

A549 [11] = test: Induction of apoptosis in human A549 cells assessed as small, round floating cells at 10 uM after 48 hrs by immunostaining relative to control; assay type: functional, cell-based
[12] = Stability of the compound in PBS buffer at pH 7.4; assay type: physicochemical
A549 [13] = test: Antitumor activity against human A549 cells xenografted in BALB/C nude mouse assessed as tumor growth inhibition at 4 mg/kg, ip administered for 5 days measured after day 30 to 33 relative to vehicle-treated control; assay type: functional; conditions: route intraperitoneal, read-out: TGI
A549 [14] = test: Antitumor activity against human A549 cells xenografted in ip dosed BALB/C nude mouse assessed as tumor growth inhibition administered for 5 days measured after day 30 to 33 relative to vehicle-treated control; assay type: functional, organism-based

| inhibition [2] | Compound | IC50 (MDA-MB-435) | IC50 (A549 [1]) | IC50 (HCT-116) | other results |
| --- | --- | --- | --- | --- | --- |
| Active | CC[C@]1(O)c2cc3n(c(=O)c2CO[C@H]1F)Cc1cc2cc(OC)ccc2nc1-3 | > 100 µM | 41.7 µM | 6.15 µM |  |
| Active | CCCCc1c2c(nc3ccccc13)-c1cc3c(c(=O)n1C2)CO[C@@H](F)[C@]3(O)CC | 3.53 µM | 17.7 µM | 0.27 µM |  |
|  | CC[C@@]1(O)C(=O)OCc2c1cc1n(c2=O)Cc2cc3c(CN(C)C)c(O)ccc3nc2-1 [TOPOTECAN] |  |  |  | TGI (A549 [3]): Active; Activity (Mus musculus): Toxic |
|  | CCCc1c2c(nc3ccccc13)-c1cc3c(c(=O)n1C2)CO[C@@H](F)[C@]3(O)CC | 2.32 µM | 2.54 µM | 0.82 µM |  |
| Active | CC[C@]1(O)c2cc3n(c(=O)c2CO[C@@H]1F)Cc1cc2ccccc2nc1-3 [(20S,21R)-FLUOROCAMPTOTHECIN] | > 100 µM | 46.2 µM | 50.9 µM |  |
|  | CCc1c2c(nc3ccc(OC)cc13)-c1cc3c(c(=O)n1C2)CO[C@@H](F)[C@]3(O)CC | 12.7 µM | 6.35 µM | 1.45 µM |  |
|  | CC[C@]1(O)c2cc3n(c(=O)c2CO[C@H]1F)Cc1c-3nc2ccccc2c1C1CCC1 | 15.8 µM | 1 µM | 95.4 µM |  |
| Active | CC[C@]1(O)c2cc3n(c(=O)c2CO[C@H]1F)Cc1cc2ccccc2nc1-3 [(20S,21S)-FLUOROCAMPTOTHECIN] | 58.3 µM | 9.95 µM | 6.35 µM | remaining at 6 h [4]: 96% |
| Active | CC[C@]1(O)c2cc3n(c(=O)c2CO[C@H]1F)Cc1cc2c([N+](=O)[O-])cccc2nc1-3 | 53 µM | 11.3 µM | 1.02 µM |  |
|  | CC[C@@]1(O)C(=O)OCc2c1cc1n(c2=O)Cc2cc3ccccc3nc2-1 [CAMPTOTHECIN] | < 0.001 µM | 0.65 µM | 0.07 µM | remaining at 6 h [4]: 42.7% |
|  | CC[C@]1(O)c2cc3n(c(=O)c2CO[C@H]1F)Cc1c-3nc2ccccc2c1C1CC1 | 9.41 µM | 15.5 µM | 3.39 µM |  |
|  | CC[C@]1(O)c2cc3n(c(=O)c2CO[C@H]1F)Cc1c-3nc2ccccc2c1C1CCCC1 | 11.8 µM | 4.14 µM | 19.8 µM |  |
|  | CC[C@]1(O)c2cc3n(c(=O)c2CO[C@H]1F)Cc1c-3nc2ccccc2c1C(C)C | 41.1 µM | > 100 µM | 65.7 µM |  |
|  | CCc1c2c(nc3ccccc13)-c1cc3c(c(=O)n1C2)CO[C@@H](F)[C@]3(O)CC | 10.9 µM | 12.7 µM | 8.53 µM |  |
|  | CC[C@]1(O)c2cc3n(c(=O)c2CO[C@H]1F)Cc1c-3nc2ccccc2c1C | 8.66 µM | 4.23 µM | 1.46 µM |  |

| Compound | inhibition [2] | IC50 (MDA-MB-435) | IC50 (A549 [1]) | IC50 (HCT-116) | other results |
| --- | --- | --- | --- | --- | --- |
| CC[C@]1(O)c2cc3n(c(=O)c2CO[C@H]1F)Cc1c-3nc2ccccc2c1C1CCCCC1 [(20S,21S)-7-CYCLOHEXYLFLUOROCAMPTOTHECIN] | Active | 0.41 µM | 0.71 µM | 0.07 µM | Activity (A549 [5]): Active; Activity (A549 [6]): 94.11%; Activity (A549 [7]): Active; inhibition [8]: inactive; inhibition in vivo at 2 mg/kg (A549 [9]): 34%; inhibition [10]: inactive; Activity (A549 [11]): Active; Stability [12]: Stable; Activity (Mus musculus): Non-toxic; inhibition in vivo at 4 mg/kg (A549 [13]): 63%; TGI (A549 [14]): Dose-dependent effect |
